# Laboratory results published in patent publication US10045981B2, “Selective kinase inhibitors” (JAKPHARM, LLC, priority 2015, dated 2018).
# Read-outs that look alike come from different tables or passages of the source. Marks after values point to notes of the source that are not given here.
# Experiments:
# CYP3A4 [1] = molecular target: T1, CYP3A4 (Homo sapiens, UniProt P08684); experiment: CYP3A4 inhibition midazolam LCMS; format: in vitro ADME
# CYP3A4 [2] = molecular target: T1, CYP3A4; experiment: CYP3A4 inhibition testosterone LCMS; format: in vitro ADME; conditions: read-out: CYP3A4 K50 [uM] testosterone LCMS
# hERG = molecular target: T2, hERG (Homo sapiens, UniProt Q12809); experiment: hERG K+ channel current in HEK293 cells; format: cell-based
# T2 construct: expressed in transfected cells; host or cells: HEK293
# [3] = Human Plasma protein binding; format: in vitro ADME
# EGFR (d746-750/T790M) = EGFR (d746-750/T790M) (Homo sapiens, UniProt P00533, DEL746-750/T790M); experiment: Exemplary Kinase Panel Analysis; format: biochemical; conditions: 10 concentrations, 3-fold serial dilutions starting at 5 μM, duplicate
# Chain of EGFR (d746-750/T790M) (P00533 with tags, fused parts or gaps DEL746-750/T790M limits assumed): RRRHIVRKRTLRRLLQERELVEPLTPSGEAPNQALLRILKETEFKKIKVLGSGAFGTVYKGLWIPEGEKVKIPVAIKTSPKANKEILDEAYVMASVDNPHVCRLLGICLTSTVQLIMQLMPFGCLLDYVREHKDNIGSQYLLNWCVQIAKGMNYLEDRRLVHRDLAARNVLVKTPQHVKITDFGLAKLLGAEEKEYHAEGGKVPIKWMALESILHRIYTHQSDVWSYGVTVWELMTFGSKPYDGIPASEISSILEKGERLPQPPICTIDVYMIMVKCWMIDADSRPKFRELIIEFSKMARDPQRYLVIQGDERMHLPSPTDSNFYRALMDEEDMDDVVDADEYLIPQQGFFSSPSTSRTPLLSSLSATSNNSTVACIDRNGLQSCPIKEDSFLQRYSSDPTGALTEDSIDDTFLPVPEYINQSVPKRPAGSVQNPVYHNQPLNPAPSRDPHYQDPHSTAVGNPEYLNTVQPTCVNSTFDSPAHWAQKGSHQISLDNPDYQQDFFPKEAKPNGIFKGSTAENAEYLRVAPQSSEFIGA
# [4] = Human Liver Microsomes stability; format: in vitro ADME; conditions: read-out: Human Liver Microsomes t½
# EGFR (L858R, T790M) = EGFR (L858R, T790M) (Homo sapiens, UniProt P00533, L858R/T790M); experiment: Exemplary Kinase Panel Analysis; format: biochemical; conditions: 10 concentrations, 3-fold serial dilutions starting at 5 μM, duplicate
# Chain of EGFR (L858R, T790M) (P00533 25-1210 T790M/L858R): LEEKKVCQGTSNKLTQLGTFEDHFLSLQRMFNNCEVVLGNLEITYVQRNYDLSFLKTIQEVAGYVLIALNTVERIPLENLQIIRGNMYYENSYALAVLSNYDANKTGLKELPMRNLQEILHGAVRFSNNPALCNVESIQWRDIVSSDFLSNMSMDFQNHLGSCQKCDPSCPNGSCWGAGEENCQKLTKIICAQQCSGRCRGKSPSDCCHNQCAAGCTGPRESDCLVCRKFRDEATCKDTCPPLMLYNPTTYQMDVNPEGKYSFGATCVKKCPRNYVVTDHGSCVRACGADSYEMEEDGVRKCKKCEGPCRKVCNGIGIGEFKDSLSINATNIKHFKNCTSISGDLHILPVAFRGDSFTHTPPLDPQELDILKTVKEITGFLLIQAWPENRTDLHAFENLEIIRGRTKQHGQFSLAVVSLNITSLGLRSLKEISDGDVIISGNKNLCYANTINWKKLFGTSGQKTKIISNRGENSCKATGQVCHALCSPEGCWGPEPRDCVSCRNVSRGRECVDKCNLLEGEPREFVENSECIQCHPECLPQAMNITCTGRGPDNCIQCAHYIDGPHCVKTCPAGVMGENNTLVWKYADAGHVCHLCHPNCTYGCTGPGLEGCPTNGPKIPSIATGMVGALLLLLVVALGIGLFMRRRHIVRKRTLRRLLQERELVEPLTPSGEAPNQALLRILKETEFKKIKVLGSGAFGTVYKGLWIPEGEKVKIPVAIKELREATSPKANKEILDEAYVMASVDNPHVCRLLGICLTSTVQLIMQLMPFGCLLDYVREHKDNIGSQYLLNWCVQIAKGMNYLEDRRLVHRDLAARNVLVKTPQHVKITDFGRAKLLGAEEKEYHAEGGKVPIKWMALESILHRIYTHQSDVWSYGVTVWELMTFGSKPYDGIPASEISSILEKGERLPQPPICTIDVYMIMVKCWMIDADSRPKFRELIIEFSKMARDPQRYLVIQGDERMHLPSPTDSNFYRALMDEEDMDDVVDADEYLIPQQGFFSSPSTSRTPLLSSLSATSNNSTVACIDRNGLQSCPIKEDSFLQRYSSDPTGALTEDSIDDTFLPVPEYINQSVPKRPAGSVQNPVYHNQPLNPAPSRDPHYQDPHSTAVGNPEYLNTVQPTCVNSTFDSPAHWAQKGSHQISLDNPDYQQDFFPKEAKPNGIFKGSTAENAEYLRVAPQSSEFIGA
# STAT5 = STAT5 inhibition IC50; format: cell-based
# EGFR (G719C) = EGFR (G719C) (Homo sapiens, UniProt P00533, G719C); experiment: Exemplary Kinase Panel Analysis; format: biochemical; conditions: 10 concentrations, 3-fold serial dilutions starting at 5 μM, duplicate
# Chain of EGFR (G719C) (P00533 25-1210 G719C): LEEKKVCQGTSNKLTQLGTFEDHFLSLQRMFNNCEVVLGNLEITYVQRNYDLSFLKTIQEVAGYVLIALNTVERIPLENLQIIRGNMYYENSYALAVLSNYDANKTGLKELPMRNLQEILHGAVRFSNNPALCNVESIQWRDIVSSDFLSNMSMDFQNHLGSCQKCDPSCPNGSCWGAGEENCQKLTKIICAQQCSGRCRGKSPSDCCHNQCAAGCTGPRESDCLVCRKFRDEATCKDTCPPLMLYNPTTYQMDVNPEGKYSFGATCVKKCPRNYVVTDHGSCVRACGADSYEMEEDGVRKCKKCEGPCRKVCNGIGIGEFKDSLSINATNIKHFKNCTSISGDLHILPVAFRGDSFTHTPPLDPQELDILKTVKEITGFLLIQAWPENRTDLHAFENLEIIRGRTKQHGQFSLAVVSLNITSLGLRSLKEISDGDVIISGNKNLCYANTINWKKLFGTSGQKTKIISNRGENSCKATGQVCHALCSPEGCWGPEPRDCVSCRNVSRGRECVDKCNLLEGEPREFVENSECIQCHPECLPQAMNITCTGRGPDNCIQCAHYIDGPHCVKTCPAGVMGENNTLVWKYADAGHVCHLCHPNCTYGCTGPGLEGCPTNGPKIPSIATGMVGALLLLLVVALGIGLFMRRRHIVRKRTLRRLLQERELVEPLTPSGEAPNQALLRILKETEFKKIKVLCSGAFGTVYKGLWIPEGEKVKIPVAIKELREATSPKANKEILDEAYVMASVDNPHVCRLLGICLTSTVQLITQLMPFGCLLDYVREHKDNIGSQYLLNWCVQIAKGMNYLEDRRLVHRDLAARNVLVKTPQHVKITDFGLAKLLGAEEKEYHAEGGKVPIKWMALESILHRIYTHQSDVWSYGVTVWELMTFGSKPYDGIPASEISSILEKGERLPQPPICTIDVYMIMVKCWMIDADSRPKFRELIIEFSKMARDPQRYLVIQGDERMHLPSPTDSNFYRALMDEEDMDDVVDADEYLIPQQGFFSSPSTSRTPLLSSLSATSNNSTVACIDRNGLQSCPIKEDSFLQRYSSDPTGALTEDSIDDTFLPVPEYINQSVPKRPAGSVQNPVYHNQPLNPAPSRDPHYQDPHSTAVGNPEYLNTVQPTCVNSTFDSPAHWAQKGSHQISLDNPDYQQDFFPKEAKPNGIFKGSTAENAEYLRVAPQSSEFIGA
# Method: Kinase Panel: These compounds were tested against 439 kinases. […]. […] The results are presented in Table 2 below, where empty cells indicate no inhibition or compound activity that could not be fit to an IC50 curve.
# [5] = Mouse Liver Microsomes stability; format: in vitro ADME; conditions: read-out: Mouse Liver Microsomes t½
# CK1g2 = CK1g2 (Homo sapiens, UniProt P78368); experiment: Exemplary Kinase Panel Analysis; format: biochemical; conditions: 10 concentrations, 3-fold serial dilutions starting at 5 μM, duplicate
# Chain of CK1g2 (P78368 whole entry, species assumed): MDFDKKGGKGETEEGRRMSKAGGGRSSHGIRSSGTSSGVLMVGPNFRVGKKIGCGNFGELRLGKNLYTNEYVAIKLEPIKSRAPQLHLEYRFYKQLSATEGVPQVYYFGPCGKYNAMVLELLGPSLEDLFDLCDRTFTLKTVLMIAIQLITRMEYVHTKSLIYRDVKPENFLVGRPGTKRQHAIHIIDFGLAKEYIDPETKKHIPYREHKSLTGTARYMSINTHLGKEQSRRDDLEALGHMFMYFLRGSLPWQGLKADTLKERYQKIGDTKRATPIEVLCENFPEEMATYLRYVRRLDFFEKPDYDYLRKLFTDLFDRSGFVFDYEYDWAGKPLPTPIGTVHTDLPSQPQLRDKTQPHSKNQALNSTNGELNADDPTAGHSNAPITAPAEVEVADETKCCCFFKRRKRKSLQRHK
# [6] = Solubility in aqueous buffer; format: physicochemical; conditions: for solubility: aqueous buffer
# CYP2D6 = CYP2D6 (Homo sapiens, UniProt P10635); experiment: CYP2D6 inhibition LCMS; format: in vitro ADME
# Chain of CYP2D6 (P10635 whole entry): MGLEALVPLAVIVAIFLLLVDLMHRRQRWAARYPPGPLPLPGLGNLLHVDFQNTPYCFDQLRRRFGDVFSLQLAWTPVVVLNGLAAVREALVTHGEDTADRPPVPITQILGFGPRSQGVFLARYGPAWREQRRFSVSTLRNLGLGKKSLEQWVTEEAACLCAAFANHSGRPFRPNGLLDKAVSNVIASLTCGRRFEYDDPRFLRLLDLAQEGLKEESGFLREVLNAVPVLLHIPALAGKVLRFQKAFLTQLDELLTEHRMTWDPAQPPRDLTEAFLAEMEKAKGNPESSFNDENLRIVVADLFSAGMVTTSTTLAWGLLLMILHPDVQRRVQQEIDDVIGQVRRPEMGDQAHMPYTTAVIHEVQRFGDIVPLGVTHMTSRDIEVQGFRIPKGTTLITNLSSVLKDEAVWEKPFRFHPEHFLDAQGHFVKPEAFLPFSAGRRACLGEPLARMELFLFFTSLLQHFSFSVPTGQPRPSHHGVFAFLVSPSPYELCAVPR
# [7] = Brain penetration classification
# [8] = Mouse Plasma protein binding; format: in vitro ADME
# CYP2C19 = CYP2C19 (Homo sapiens, UniProt P33261); experiment: CYP2C19 inhibition LCMS; format: in vitro ADME
# Chain of CYP2C19 (P33261 whole entry): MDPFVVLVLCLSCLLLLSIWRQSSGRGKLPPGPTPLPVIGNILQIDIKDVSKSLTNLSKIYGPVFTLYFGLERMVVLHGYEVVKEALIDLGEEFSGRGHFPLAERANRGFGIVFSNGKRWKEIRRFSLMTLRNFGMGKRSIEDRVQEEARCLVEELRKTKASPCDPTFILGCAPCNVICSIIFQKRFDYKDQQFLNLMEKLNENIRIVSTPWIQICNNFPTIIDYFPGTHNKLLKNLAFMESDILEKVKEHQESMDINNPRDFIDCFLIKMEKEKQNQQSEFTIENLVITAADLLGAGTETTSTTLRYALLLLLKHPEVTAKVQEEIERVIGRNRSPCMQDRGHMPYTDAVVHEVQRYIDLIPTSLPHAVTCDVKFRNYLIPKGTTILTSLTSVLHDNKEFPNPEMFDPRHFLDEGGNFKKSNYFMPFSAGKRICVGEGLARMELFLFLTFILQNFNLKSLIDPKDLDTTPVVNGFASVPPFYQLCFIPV
# JAK3 = molecular target: T3, JAK3 (Homo sapiens, UniProt P52333); experiment: JAK3 biochemical IC50; conditions: for JAK3 selectivity vs. STAT5: STAT5 IC50 relative to JAK3 IC50; for selectivity for JAK3 compared to JAK1, JAK2, and TYK2 (in words): two independent analyses
# T3 sequence (P52333 1-1124): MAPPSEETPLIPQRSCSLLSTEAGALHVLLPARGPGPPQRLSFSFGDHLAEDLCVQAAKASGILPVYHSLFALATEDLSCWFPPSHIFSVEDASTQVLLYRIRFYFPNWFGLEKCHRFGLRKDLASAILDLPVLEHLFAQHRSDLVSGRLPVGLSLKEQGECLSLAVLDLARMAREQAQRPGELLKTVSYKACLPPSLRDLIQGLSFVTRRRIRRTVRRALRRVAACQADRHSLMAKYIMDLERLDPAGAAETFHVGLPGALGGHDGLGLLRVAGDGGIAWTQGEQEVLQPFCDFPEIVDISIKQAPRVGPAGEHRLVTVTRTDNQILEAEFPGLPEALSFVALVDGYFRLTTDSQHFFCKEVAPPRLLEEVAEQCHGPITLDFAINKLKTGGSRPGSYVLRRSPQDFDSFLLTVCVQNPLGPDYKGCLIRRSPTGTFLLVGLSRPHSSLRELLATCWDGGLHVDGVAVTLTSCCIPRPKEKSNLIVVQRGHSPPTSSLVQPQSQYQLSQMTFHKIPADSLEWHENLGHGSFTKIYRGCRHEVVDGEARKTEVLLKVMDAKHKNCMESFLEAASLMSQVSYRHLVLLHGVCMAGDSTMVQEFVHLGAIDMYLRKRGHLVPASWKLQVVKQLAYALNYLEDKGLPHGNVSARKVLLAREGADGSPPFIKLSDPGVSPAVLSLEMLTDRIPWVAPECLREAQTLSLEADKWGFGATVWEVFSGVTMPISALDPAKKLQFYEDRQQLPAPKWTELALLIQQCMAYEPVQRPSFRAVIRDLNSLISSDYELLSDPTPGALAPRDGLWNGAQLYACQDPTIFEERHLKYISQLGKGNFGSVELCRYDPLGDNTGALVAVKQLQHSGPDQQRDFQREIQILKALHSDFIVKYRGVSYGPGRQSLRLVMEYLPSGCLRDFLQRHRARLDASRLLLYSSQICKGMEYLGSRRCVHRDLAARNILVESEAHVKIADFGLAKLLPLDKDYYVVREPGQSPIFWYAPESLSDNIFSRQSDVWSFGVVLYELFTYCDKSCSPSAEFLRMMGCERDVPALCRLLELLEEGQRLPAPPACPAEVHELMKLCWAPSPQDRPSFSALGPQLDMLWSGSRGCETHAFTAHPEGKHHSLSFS
# [9] = Cytotoxicity Screening L929 Fibroblasts; format: cell-based; conditions: mouse, read-out: 50% Maximal Effect Concentration (AC50)
# Excerpt: (§1) The cytotoxicity screening panel included cell count, nuclear size, DNA structure, cell membrane permeability, mitochondrial mass, mitochondrial membrane potential, and cytochrome C release.
# L929 Fibroblasts = experiment: Cytotoxicity Screening L929 Fibroblasts; format: cell-based
# Excerpt: as §1
# EGFR (d752-759) = EGFR (d752-759) (Homo sapiens, UniProt P00533, DEL752-759); experiment: Exemplary Kinase Panel Analysis; format: biochemical; conditions: 10 concentrations, 3-fold serial dilutions starting at 5 μM, duplicate
# [10] = Original analysis, read-out: STAT5 IC50 (uM) Original
# [11] = Table 3, first session (before /), read-out: STATS inhibition IC50
# [12] = Table 3, second session (after /), read-out: STATS inhibition IC50
# [13] = re-test, read-out: STAT5 IC50 (uM) re-test
# [14] = pH 7.4, aqueous buffer, pH 7.4, Original, read-out: Solubility pH 7.4 (uM) Original
# [15] = pH 7.4, aqueous buffer, pH 7.4, Re-test, read-out: Solubility pH 7.4 (uM) Re-test
# [16] = pH 7.4, aqueous buffer, pH 7.4, Table 3, first session (before /), read-out: Solubility, pH 7.4
# [17] = pH 7.4, aqueous buffer, pH 7.4, Table 3, second session (after /), read-out: Solubility, pH 7.4
# [18] = Original analysis, read-out: JAK3 IC50 (uM) Original
# [19] = Table 3, first session (before /), read-out: JAK3 biochemical IC50
# [20] = Table 3, second session (after /), read-out: JAK3 biochemical IC50
# [21] = re-test, read-out: JAK3 IC50 (uM) re-test
# T1 sequence (P08684 whole entry): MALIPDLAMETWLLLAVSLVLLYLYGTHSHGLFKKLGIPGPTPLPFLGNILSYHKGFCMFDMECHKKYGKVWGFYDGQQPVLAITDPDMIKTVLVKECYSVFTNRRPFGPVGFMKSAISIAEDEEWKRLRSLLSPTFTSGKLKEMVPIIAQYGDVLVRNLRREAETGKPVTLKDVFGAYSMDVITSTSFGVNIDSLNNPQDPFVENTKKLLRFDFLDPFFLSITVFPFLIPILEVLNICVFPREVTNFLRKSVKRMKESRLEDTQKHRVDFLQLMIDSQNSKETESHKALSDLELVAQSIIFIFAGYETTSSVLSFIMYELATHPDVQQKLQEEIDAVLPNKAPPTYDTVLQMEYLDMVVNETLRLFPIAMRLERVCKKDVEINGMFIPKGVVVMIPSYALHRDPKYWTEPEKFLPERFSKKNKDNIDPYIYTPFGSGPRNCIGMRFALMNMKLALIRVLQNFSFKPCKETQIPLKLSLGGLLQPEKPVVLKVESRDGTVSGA
SMILES,IC50 (CYP3A4 [1]; first session (before /)),IC50 (CYP3A4 [1]; second session (after /)),IC50 (CYP3A4 [2]; first session (before /)),IC50 (CYP3A4 [2]; second session (after /)),IC50 (hERG),fraction unbound [3],IC50 (EGFR (d746-750/T790M)),half-life ([4]; first session (before /)),half-life ([4]; second session (after /)),"IC50 (EGFR (L858R, T790M))",IC50 (STAT5; [10]),IC50 (STAT5; [11]),IC50 (STAT5; [12]),IC50 (STAT5; [13]),IC50 (EGFR (G719C)),half-life ([5]; first session (before /)),half-life ([5]; second session (after /)),IC50 (CK1g2),"solubility [6, 14]","solubility [6, 15]",also measured
"C=CC(=O)Nc1cc(CN2CCNC(=O)C2)cc(-c2cnc3ccccc3n2)c1 [Compound 1b, N-[3-[(3-oxopiperazin-1-yl)methyl]-5-quinoxalin-2-yl-phenyl] prop-2-enamide]",> 100 µM,> 100 µM,> 100 µM,> 100 µM,> 10000 nM,0.317,560 nM,75 min,> 60 min,1320 nM,5.5 µM,5.5 µM,8.6 µM,8.6 µM,193 nM,23 min,50 min,322 nM,88 µM,88 µM,"solubility ([6]; pH 5, aqueous buffer, pH 5.0, read-out: Solubility In Aqueous Buffer pH 5.0): 93 µM; solubility ([6]; pH 6.5, aqueous buffer, pH 6.5, read-out: Solubility In Aqueous Buffer pH 6.5): 108 µM; solubility [6, 16]: 88 µM; solubility [6, 17]: 88 µM; solubility at pH 7.4 (in words) ([6]; pH 7.4): highly and consistently soluble; IC50 (CYP2D6; first session (before /)): > 100 µM; IC50 (CYP2D6; second session (after /)): > 100 µM; Brain penetration classification [7]: Low; fraction unbound [8]: 0.059; IC50 (CYP2C19; first session (before /)): > 100 µM; IC50 (CYP2C19; second session (after /)): > 100 µM; IC50 (JAK3; [18]): 0.018 µM; JAK3 selectivity vs. STAT5 (JAK3): (392X)*; IC50 (JAK3; [19]): 0.018 µM; IC50 (JAK3; [20]): 0.018 µM; IC50 (JAK3; [21]): 0.018 µM; selectivity for JAK3 compared to JAK1, JAK2, and TYK2 (in words) (JAK3): highly selective for JAK3; AC50 [9]: 45000 nM; Minimal Effective Concentration (MEC, uM) (L929 Fibroblasts): 20 µM; IC50 (EGFR (d752-759)): 1560 nM"
C=CC(=O)Nc1cc(CN2CCN(C)C(=O)C2)cc(-c2cnc3ccccc3n2)c1 [Compound 1a],> 100 µM,> 100 µM,81.5 µM,> 100 µM,> 10000 nM,0.223,87.9 nM,64 min,60 min,231 nM,1.2 µM,1.2 µM,2.9 µM,2.9 µM,66.1 nM,7.3 min,15 min,248 nM,85 µM,34 µM,"solubility [6, 16]: 85 µM; solubility [6, 17]: 34 µM; IC50 (CYP2D6; first session (before /)): > 100 µM; IC50 (CYP2D6; second session (after /)): > 100 µM; Brain penetration classification [7]: Low; fraction unbound [8]: 0.034; IC50 (CYP2C19; first session (before /)): > 100 µM; IC50 (CYP2C19; second session (after /)): 90 µM; IC50 (JAK3; [18]): 0.013 µM; JAK3 selectivity vs. STAT5 (JAK3): (178X)*; IC50 (JAK3; [19]): 0.013 µM; IC50 (JAK3; [20]): 0.01 µM; IC50 (JAK3; [21]): 0.01 µM; selectivity for JAK3 compared to JAK1, JAK2, and TYK2 (in words) (JAK3): highly selective for JAK3; AC50 [9]: 20000 nM; Minimal Effective Concentration (MEC, uM) (L929 Fibroblasts): 9 µM; IC50 (EGFR (d752-759)): 194 nM"
